Source: patent publication US20030228277A1, “Use of ROM production and release inhibitors to treat and prevent intraocular damage” (priority 2002, published 2003)

Legend:
NADPH oxidase = target: T1, NADPH oxidase (Homo sapiens, UniProt P04839); conditions: membrane bound enzyme converting oxygen to superoxide; cited from earlier work
T1 construct: host or cells: phagocytes (not specified further)

[1] = tested on: diabetic patient manifesting proliferative diabetic retinopathy; conditions: ophthalmic gel containing 0.5% histamine dihydrochloride; compared with patients who received no histamine
From the text: The purpose of this treatment is to reduce the extent of proliferative diabetic retinopathy, to prevent further manifestations of the disease after removal of any extraretinal neovascularized tissue, and to reduce the likelihood of retinal detachment.
A patient presenting proliferative diabetic retinopathy receives the histamine treatment described herein in combination with surgical treatment of the neovascularized tissue.
Once diagnosed as entering the proliferative stage, the patient receives a full ophthalmic examination to establish a baseline of ocular health. […]
After treatment, the patients' eyes are examined on days one (1), two (2), seven (7), fifteen (15), thirty (30) and sixty (60). On each examination day, the patient is monitored. Additionally, the patient is monitored for posterior vitreous detachments using indirect ophthalmoscopy with scleral depression. Finally, the extent of PDR presented by the patient is continuously monitored through periodic retinal examinations and fluorescein angiograms to monitor the extent of venous beading, IRMA, retinal ischemia, neovascularization, and vitreal hemorrhage. […]

[2] = tested on: patient suffering from PDR; conditions: approximately 100 μl of a 2% histamine-containing solution injected intraocularly, repeated every two weeks
From the text: As a preliminary step a patient is identified as suffering from PDR. […] The patient is monitored thereafter. The treatment is repeated every two weeks.

macular hole formation = conditions: 200 μl intravitreal ophthalmic solution containing 5% histamine dihydrochloride; compared with untreated eyes
Protocol: The described methods contemplate the use of histamine to reduce ROM levels and so as to eliminate the conditions which result in macular hole formation. Following the preliminary examination, an intravitreal injection of histamine dihydrochloride is given to patient's affected eye. If both eyes are affected, they may be treated separately. The eye is injected with the histamine ophthalmic solution intravitreally to promote a reduction of ROM levels. The eye to be treated is injected intravitreally with 200 μl of a histamine ophthalmic solution containing 5% histamine dihydrochloride to prevent or reduce ROM mediate intraocular damage.

[3] = tested on: diabetic patient manifesting preproliferative diabetic retinopathy; conditions: intravitreal ophthalmic solution containing 1% histamine diphosphate; compared to an untreated individual
Protocol: A diabetic patient manifesting preproliferative diabetic retinopathy is treated for this complication of diabetes mellitus through the intravitreal injection of a histamine compound.
This increased surveillance should include periodic retinal examinations and fluorescein angiograms to monitor the extent of venous beading, IRMA, and retinal ischemia.
When preproliferative diabetic retinopathy begins reaching the proliferative stage, treatment with an ROM inhibitor or scavenger is commenced. This stage is defined as the presence of venous beading in 2 or more quadrants, IRMA in one or more quadrants, and/or microaneurysm and dot hemorrhages in all quadrants. Once these indicia are present, the administration of a ROM inhibitor or scavenger is initiated.
The patient receives a full ophthalmic examination to establish a baseline of ocular health. […]
After treatment, the patient's eyes are examined on days one (1), two (2), seven (7), fifteen (15), thirty (30) and sixty (60). On each examination day, the patient is monitored. Additionally, the patient is monitored for posterior vitreous detachments using indirect ophthalmoscopy with scleral depression. Finally, the extent of PDR presented by the patient is continuously monitored through periodic retinal examinations and fluorescein angiograms to monitor the extent of venous beading, IRMA, and retinal ischemia.

[4] = tested on: patient manifesting age-related macular degeneration; experiment: Treatment of age-related macular degeneration, intravitreal ROM scavenger; assay type: in vivo, human; conditions: intravitreal ophthalmic solution containing 0.75% superoxide dismutase; compared to untreated eyes
Protocol: A patient manifesting age-related macular degeneration is treated with an intravitreal injection of a scavenger of ROM, namely superoxide dismutase.
Once a patient reaches the age of 60, increased ophthalmic surveillance is performed to detect the presence of ADM.
When ADM is diagnosed, a regime of histamine treatment is commenced coupled with or without other treatments such as photocoagulation.
Following the preliminary examination, an intravitreal injection of superoxide dismutase is given to the patient's affected eye manifesting ADM. […] The eye to be treated is injected intravitreally with an ophthalmic solution containing 0.75% superoxide dismutase to prevent or reduce ROM mediate intraocular damage.
Because of the possibility of reoccurrence, the patient should return for periodic examinations on a monthly basis thereafter. […] Additional superoxide dismutase and/or laser treatments may be required if indicia of reoccurring neovascularization are observed.

For `NC(=O)C1=CN([C@@H]2O[C@H](COP(=O)(O)OP(=O)(O)OC[C@H]3O[C@@H](n4cnc5c(N)ncnc54)[C@H](O)[C@@H]3O)[C@@H](O)[C@H]2O)C=CC1` [NADH], the Km (NADPH oxidase) is given as 450 µM.

For `NC(=O)C1=CN([C@@H]2O[C@H](COP(=O)(O)OP(=O)(O)OC[C@H]3O[C@@H](n4cnc5c(N)ncnc54)[C@H](OP(=O)(O)O)[C@@H]3O)[C@@H](O)[C@H]2O)C=CC1` [NADPH], the Km (NADPH oxidase) is given as 45 µM.

With `Cl.Cl.NCCc1c[nH]cn1` [histamine dihydrochloride] the “development of posterior vitreous detachments” value [1] was “reduction in the development of posterior vitreous detachments”.

In the case of `NCCc1c[nH]cn1` [histamine], the “symptoms associated with PDR” value [2] is reported as “reduction in symptoms associated with PDR” and the “incidence of macular hole formation” value (macular hole formation) is reported as “reduction in the incidence of macular hole formation”.

For histamine diphosphate, the “development of proliferative diabetic retinopathy” value [3] was “reduction in the development of proliferative diabetic retinopathy”.

In the case of superoxide dismutase, the ocular health [4] is reported as “improvement in ocular health”.
